Patent US12275985B2, “Redox labeled oligonucleotide probes and their use” (ABBOTT DIAGNOSTICS SCARBOROUGH, INC., priority 2016, dated 2025)

Experiments:
[1] = system: InfA[PA] and InfB[PA] DNA; experiment: Duplexed RPA detection with 1:1 mixture of MB- and PZ9-labelled probes on HeartCheck sensor; set-up: species or system Influenza A and Influenza B; conditions: duplexed detection at 15 min, 10^7 copies of each target, third order polynomial baseline correction
[2] = DPV detection of cleaved redox labels in RPA reactions (peak potential and current); type: physicochemical; conditions: for ΔE vs MB / E (DPV peak potential of cleaved label): label cleaved from Fpg probe in RPA, DPV
Protocol: DNA and RNA amplification by RPA can be monitored in real-time or by end-product detection using the TwistAmp® basic kit with DPV detection. Briefly, a clinical sample (e.g., a clinical swab or wipe) is added to an RPA reagent mixture specific for a target nucleic acid sequence, the reagent mixture containing an Exo or Fpg oligonucleotide probe labeled with a redox-moiety, such as those described above, and maintained at 37° C.-42° C. for a time sufficient for amplification. Incubation in the presence of an ExoIII or Fpg exonuclease results in cleavage of probe/target DNA hybrids which allows for liberation of the redox-moiety (see FIG. 14). The liberated redox-moiety can be detected by, for example, amperometry, voltammetry (e.g., Differential Pulse voltammetry), and AC-impedance. Where the redox label has been cleaved from the probe/target complex (i.e., a sample positive for the target nucleic acid) a peak in current is observed at a voltage which corresponds to the oxidation potential of the label. Where the redox label has not been released from the oligonucleotide probe (i.e., a sample negative for the target nucleic acid), no peak is observed.
A “DPV output” of a given RPA reaction is determined by measuring the signal current generated by the redox-label present in the reaction in response to applied potentials. The DPV procedure requires the definition of several key parameters: interval period (related to scan rate), step potential, amplitude of the pulse (amp) and time of the pulse (pulse width). An example of these settings were: interval period 0.1 s, step potential 5 mV, pulse amplitude 75 mV and pulse width 30 ms. In addition to these parameters for the actual measurement, the DPV protocol also entails a series of 3 initial sequences of potential changes (“sweeps”) the output of which is not being directly quantified.
At FIG. 1, a method for electrochemical detection of an amplified nucleic acid target sequence according to an embodiment of the present invention is show. […] In the presence of the target, multiple copies of the DNA strand complementary to the labeled oligonucleotide probe are generated using a nucleic acid amplification method, such as, for example, PCR, RPA (shown), or NEAR. Following amplification, the DNA strand complementary to the labeled oligonucleotide probe anneal (i.e., hybridize) with the probe and form a double-stranded substrate. In the presence of a nuclease, the redox moiety (i.e., redox label) is enzymatically cleaved from (e.g., separated from) from the double-stranded substrate effecting release of the redox label. Once cleaved, the redox moiety (i.e., redox label) is able to diffuse and interact with the electrode and detection of the redox moiety is achieved by, for example, DPV, whereby a potential window (E) is swept in a stepwise fashion, and the Faradaic current (I) associated with reduction of the label is recorded. Diffusing redox labels that have been enzymatically released from oligonucleotide probes generate a larger current response, thus enabling electrochemical detection of target amplification.
For example, during initial studies on Alere HeartCheck electrodes, redox moieties with a reduction potential (versus a Ag/AgCl reference electrode) of between approximately […] were considered optimal for multiplexing (FIG. 2). In order to resolve two redox moieties which fall within this window, a difference (ΔE) of approximately ≥50 mV in their peak potential is predicted to be sufficient. Thus, in the case of the HeartCheck electrode, there is a theoretical maximum multiplexing capacity of 5 labels within this window. Note however that alternative (electrode-dependent) windows for detection may be determined.

[3] = Aqueous solubility of redox label; type: physicochemical

SMILES	Emax of calculated Gaussian curve [1]	reduction peak potential ([2]; vs Ag/AgCl during DPV in an RPA context)	ΔE vs MB [2]	aqueous solubility [3]	E (DPV peak potential of cleaved label) [2]
CN(C)c1ccc2nc3ccc(N(C)C)cc3[s+]c2c1.[Cl-] [Methylene Blue, 3,7-bis(Dimethylamino)-phenothiazin-5-ium chloride]	−0.3731 V	−320 mV			
CN(CCCC(=O)O)c1ccc2nc3ccc(N(C)c4ccccc4)cc3[s+]c2c1.[Cl-] [PZ9]	−0.3046 V		~+60 mV		
CC/[N+](CCCS(=O)(=O)[O-])=c1/ccc2nc3ccc(N(C)CCC(=O)O)cc3oc-2c1 [PO2, N-(3-(N-methyl(2-carboxyethyl)amino)phenoxazin-7-ylidene)-N-ethyl(3-sulfonatopropyl)aminium chloride]			~−60 mV	good aqueous solubility	~−0.44 V
C[N+](C)=c1ccc2nc3c(cc(NCCC(=O)O)c4ccccc43)oc-2c1.[Cl-] [PO1, N-(5-(2-carboxyethylamino)-9H-benzo[a]phenoxazin-9-ylidene)-N-methylmethanaminium chloride]			~−140 mV		~−0.52 V
